Experimental data as given in ChEMBL document CHEMBL3885881, “DrugMatrix”.

Species on record: Rattus norvegicus
Experiment: DrugMatrix - Regimen: Daily Repeat
Assay type: toxicity, organism-based, Sprague-Dawley
Parameters: regimen Daily Repeat, gender Male, age 6-8 weeks
Conditions: in vivo, po, 75 mg/kg, route oral GAVAGE, dose level High, […]; for ABSOLUTE BASOPHIL / ABSOLUTE EOSINOPHIL / ABSOLUTE LYMPHOCYTE / ABSOLUTE MONOCYTE / ABSOLUTE SEGMENTED NEUTROPHIL / BASOPHIL / EOSINOPHIL / ERYTHROCYTE COUNT / HEMATOCRIT / HEMOGLOBIN / LEUKOCYTE COUNT / LYMPHOCYTE / MEAN CORPUSCULAR HEMOGLOBIN / MEAN CORPUSCULAR HEMOGLOBIN CONCENTRATION / MEAN CORPUSCULAR VOLUME / MONOCYTE / NEUTROPHIL / NUCLEATED RED BLOOD CELLS / PLATELET COUNT: tissue Blood; for ALANINE AMINOTRANSFERASE / ALBUMIN / ALKALINE PHOSPHATASE / ASPARTATE AMINOTRANSFERASE / BLOOD UREA NITROGEN / CARBON DIOXIDE / CHLORIDE / CHOLESTEROL / CREATINE PHOSPHOKINASE / CREATININE / GLUCOSE / LACTATE DEHYDROGENASE / LIPASE / PHOSPHORUS / POTASSIUM / SODIUM / TOTAL BILIRUBIN / TOTAL PROTEIN / URIC ACID: tissue Plasma

SMILES: NC(=O)N1C(=O)/C(=C(\O)c2cccs2)c2cc(Cl)ccc21 [TENIDAP]
- ABSOLUTE BASOPHIL (72 h, time 3 day): 0 CELLS/uL
- ABSOLUTE EOSINOPHIL (72 h, time 3 day): 72 CELLS/uL
- ABSOLUTE LYMPHOCYTE (72 h, time 3 day): 18447.67 CELLS/uL
- ABSOLUTE MONOCYTE (72 h, time 3 day): 586.33 CELLS/uL
- ABSOLUTE SEGMENTED NEUTROPHIL (72 h, time 3 day): 3327.33 CELLS/uL
- BASOPHIL (72 h, time 3 day): 0%
- EOSINOPHIL (72 h, time 3 day): 0.33%
- ERYTHROCYTE COUNT (72 h, time 3 day): 5.15 x10E6/uL
- HEMATOCRIT (72 h, time 3 day): 32.13%
- HEMOGLOBIN (72 h, time 3 day): 13.03 G/DL
- LEUKOCYTE COUNT (72 h, time 3 day): 22.43 x10E3/uL
- LYMPHOCYTE (72 h, time 3 day): 82%
- MEAN CORPUSCULAR HEMOGLOBIN (72 h, time 3 day): 25.3 pg
- MEAN CORPUSCULAR HEMOGLOBIN CONCENTRATION (72 h, time 3 day): 40.63 G/DL
- MEAN CORPUSCULAR VOLUME (72 h, time 3 day): 62.33 fL
- MONOCYTE (72 h, time 3 day): 2.67%
- NEUTROPHIL (72 h, time 3 day): 15%
- NUCLEATED RED BLOOD CELLS (72 h, time 3 day): 0 /100WBC
- PLATELET COUNT (72 h, time 3 day): 1275.33 x10E3/uL
- ALANINE AMINOTRANSFERASE (72 h, time 3 day): 41.67 u/L
- ALBUMIN (72 h, time 3 day): 3.37 G/DL
- ALKALINE PHOSPHATASE (72 h, time 3 day): 301 u/L
- ASPARTATE AMINOTRANSFERASE (72 h, time 3 day): 107.33 u/L
- BLOOD UREA NITROGEN (72 h, time 3 day): 11.33 mg/dL
- CARBON DIOXIDE (72 h, time 3 day): 22.33 mmol/L
- CHLORIDE (72 h, time 3 day): 100.33 MEQ/L
- CHOLESTEROL (72 h, time 3 day): 64.67 mg/dL
- CREATINE PHOSPHOKINASE (72 h, time 3 day): 1284.33 u/L
- CREATININE (72 h, time 3 day): 0.21 mg/dL
- GLUCOSE (72 h, time 3 day): 168.67 mg/dL
- LACTATE DEHYDROGENASE (72 h, time 3 day): 492.67 u/L
- LIPASE (72 h, time 3 day): 10 u/L
- PHOSPHORUS (72 h, time 3 day): 11.63 mg/dL
- POTASSIUM (72 h, time 3 day): 6.52 MEQ/L
- SODIUM (72 h, time 3 day): 144.2 MEQ/L
- TOTAL BILIRUBIN (72 h, time 3 day): 0.13 mg/dL
- TOTAL PROTEIN (72 h, time 3 day): 5.17 G/DL
- URIC ACID (72 h, time 3 day): 2.97 mg/dL
- ABSOLUTE BASOPHIL (120 h, time 5 day): 0 CELLS/uL
- ABSOLUTE EOSINOPHIL (120 h, time 5 day): 26.67 CELLS/uL
- ABSOLUTE LYMPHOCYTE (120 h, time 5 day): 9823.33 CELLS/uL
- ABSOLUTE MONOCYTE (120 h, time 5 day): 49.33 CELLS/uL
- ABSOLUTE SEGMENTED NEUTROPHIL (120 h, time 5 day): 1634 CELLS/uL
- BASOPHIL (120 h, time 5 day): 0%
- EOSINOPHIL (120 h, time 5 day): 0.33%
- ERYTHROCYTE COUNT (120 h, time 5 day): 4.78 x10E6/uL
- HEMATOCRIT (120 h, time 5 day): 30.53%
- HEMOGLOBIN (120 h, time 5 day): 12.13 G/DL
- LEUKOCYTE COUNT (120 h, time 5 day): 11.53 x10E3/uL
- LYMPHOCYTE (120 h, time 5 day): 87.67%
- MEAN CORPUSCULAR HEMOGLOBIN (120 h, time 5 day): 25.37 pg
- MEAN CORPUSCULAR HEMOGLOBIN CONCENTRATION (120 h, time 5 day): 39.73 G/DL
- MEAN CORPUSCULAR VOLUME (120 h, time 5 day): 63.83 fL
- MONOCYTE (120 h, time 5 day): 0.67%
- NEUTROPHIL (120 h, time 5 day): 11.33%
- NUCLEATED RED BLOOD CELLS (120 h, time 5 day): 0.33 /100WBC
- PLATELET COUNT (120 h, time 5 day): 1185.67 x10E3/uL
- ALANINE AMINOTRANSFERASE (120 h, time 5 day): 35.67 u/L
- ALBUMIN (120 h, time 5 day): 3.53 G/DL
- ALKALINE PHOSPHATASE (120 h, time 5 day): 211 u/L
- ASPARTATE AMINOTRANSFERASE (120 h, time 5 day): 95 u/L
- BLOOD UREA NITROGEN (120 h, time 5 day): 13.67 mg/dL
- CARBON DIOXIDE (120 h, time 5 day): 33 mmol/L
- CHLORIDE (120 h, time 5 day): 103.33 MEQ/L
- CHOLESTEROL (120 h, time 5 day): 68 mg/dL
- CREATINE PHOSPHOKINASE (120 h, time 5 day): 655 u/L
- CREATININE (120 h, time 5 day): 0.26 mg/dL
- GLUCOSE (120 h, time 5 day): 158 mg/dL
- LACTATE DEHYDROGENASE (120 h, time 5 day): 243 u/L
- LIPASE (120 h, time 5 day): 11 u/L
- PHOSPHORUS (120 h, time 5 day): 9.87 mg/dL
- POTASSIUM (120 h, time 5 day): 4.94 MEQ/L
- SODIUM (120 h, time 5 day): 147 MEQ/L
- TOTAL BILIRUBIN (120 h, time 5 day): 0.2 mg/dL
- TOTAL PROTEIN (120 h, time 5 day): 5.43 G/DL
- URIC ACID (120 h, time 5 day): 1.03 mg/dL
